Source: publication PMC4191602 (Journal of Medicinal Chemistry, 2014)

Legend:
influenza A endonuclease = details: earlier studies with phenyl substituted 3-hydroxypyridin-2(1H)-ones; cited from earlier work
[1] = target: Influenza A endonuclease (pandemic H1N1 endonuclease, residues 1–204) (Influenza A virus, UniProt C3W5S0); assay type: biochemical

Structure (SMILES): O=c1[nH]ccc(-c2ccc(F)cc2)c1O [4-(4-fluorophenyl)-3-hydroxypyridin-2(1H)one]
- activity as endonuclease inhibitor (in words) (influenza A endonuclease): did not exhibit significant activity

Structure (SMILES): O=c1[nH]cc(-c2ccc(F)cc2)[nH]c1=O [compound 1, 5-(4-Fluorophenyl)pyrazine-2,3(1H,4H)-dione]
- activity as an endonuclease inhibitor (in words) [1]: comparatively weak activity
- less potent than either 5- or 6-(4-fluorophenyl)-3-hydroxypyridin-2(1H)-one [1]: more than 80 times

Structure (SMILES): O=c1[nH]cnc(-c2ccc(F)cc2)c1O [compound 2, 6-(4-Fluorophenyl)-5-hydroxypyrimidin-4(3H)-one]
- activity as an endonuclease inhibitor (in words) [1]: lack of activity

Structure (SMILES): N#Cc1cccc(-c2ncc(O)c(=O)[nH]2)c1 [compound 10, 3-(5-Hydroxy-6-oxo-1,6-dihydropyrimidin-2-yl)benzonitrile]
- potency compared to the 4-cyanophenyl isomer 9 [1]: approximately twice as potent

Structure (SMILES): O=c1[nH]c(-c2ccc(-c3nnn[nH]3)cc2)ncc1O [compound 11, 2-(4-(1H-Tetrazol-5-yl)phenyl)-5-hydroxypyrimidin-4(3H)-one]
- potency relative to the 3-(tetrazoly)phenyl derivative 12 [1]: 3 fold

Structure (SMILES): O=c1[nH]ncc(-c2ccc(F)cc2)c1O [compound 13, 5-(4-Fluorophenyl)-4-hydroxypyridazin-3(2H)-one]
- activity as an endonuclease inhibitor (in words) [1]: did not exhibit significant activity
